Publication PMC8900464 (Journal of medicinal chemistry, 2022)
“Also recorded” adds a separate entry of the source.

What was measured:
[1] = system: P-AKT (S473), P-PRAS40 (T246), P-S6 (S240/244); assay: Immunoblotting of P-AKT and downstream signaling in BT474 cells; type: cell-based; settings: 24 h; for downstream signaling inhibition: P-PRAS40 and P-S6, western blot
BT474 cells = assay: Cell colony formation assay; type: cell-based; settings: 14 days
total AKT (T-AKT) = assay: Immunoblotting of total AKT in BT474 cells; type: cell-based; settings: 24 h, western blot; for AKT (T-AKT) degradation: BT474 cells, 1, 5 and 10 μM
T-AKT, P-AKT, P-PRAS40 = assay: Western blotting analysis of xenograft tumor samples; type: in vivo, mice; settings: PC3 xenograft, 75 mg/kg once daily IP, end of study
P-PRAS40, P-S6 = assay: Downstream signaling in PC3 cells; settings: for downstream signaling inhibition after washout: 1 μM for 24 h, then washout
PC-3 xenografts [2] = type: in vivo; settings: PC3 xenograft mice, 75 mg/kg once daily IP, 22 days
T-AKT [3] = assay: Competition; type: cell-based, human; settings: PC3 cells, then compound 24 h
T-AKT [4] = assay: T-AKT degradation in PC3 cells; type: cell-based, human; settings: for T-AKT level after washout: 48 h post-treatment
PC-3 xenografts [5] = settings: PC3 xenograft, 75 mg/kg once daily IP; cited from earlier work
PC3 cells = assay: Cell proliferation assay; type: cell-based, human; settings: 5 days
MDA-MB-468 cells = assay: Cell proliferation assay; type: cell-based; settings: 5 days
[6] = Mouse pharmacokinetic study; type: in vivo, mice; settings: male, Swiss Albino, plasma, ip, 150 mg/kg
[7] = BT474 cells, 1 μM, western blot

**Q.** With `Cc1ncsc1-c1ccc([C@H](C)NC(=O)[C@@H]2C[C@@H](O)CN2C(=O)[C@@H](NC(=O)CCCCCCCCCC(=O)N2CCN(CC[C@H](NC(=O)C3(N)CCN(c4ncnc5[nH]ccc45)CC3)c3ccc(Cl)cc3)CC2)C(C)(C)C)cc1` [Compound 23, 4-Amino-N-((S)-1-(4-chlorophenyl)-3-(4-(11-(((S)-1-((2S,4R)-4-hydroxy-2-(((S)-1-(4-(4-methylthiazol-5-yl)phenyl)ethyl)carbamoyl)-pyrrolidin-1-yl)-3,3-dimethyl-1-oxobutan-2-yl)amino)-11-oxoundecanoyl)piperazin-1-yl)propyl)-1-(7H-pyrrolo[2,3-d]-pyrimidin-4-yl)piperidine-4-carboxamide] as the compound, how does the downstream signaling inhibition ([1]; BT474 cells, 1, 5 and 10 μM) read?
**A.** did not show significant difference from 19

**Q.** What about the “inhibition of colony formation” value (BT474 cells) of the same compound?
**A.** did not show significant difference from 19

**Q.** And the “AKT (T-AKT) degradation” value (total AKT (T-AKT))?
**A.** did not show significant difference from 19

**Q.** With `NC1(C(=O)N[C@@H](CCN2CCN(C(=O)CCOCCOCCOCCOCCOCCCc3cccc4c3C(=O)N(C3CCC(=O)NC3=O)C4=O)CC2)c2ccc(Cl)cc2)CCN(c2ncnc3[nH]ccc23)CC1` (some centres unmarked) [Compound 41] as the compound, how does the “inhibition of colony formation” value (BT474 cells) read?
**A.** did not improve

**Q.** And the “AKT (T-AKT) degradation” value (total AKT (T-AKT))?
**A.** did not improve

**Q.** Which results are given for `NC1(C(=O)N[C@@H](CCN2CCN(C(=O)CCOCCOCCOCCOCCOCCOc3cccc4c3C(=O)N(C3CCC(=O)NC3=O)C4=O)CC2)c2ccc(Cl)cc2)CCN(c2ncnc3[nH]ccc23)CC1` (stereo partly drawn) [Compound 40, 4-Amino-N-((1S)-1-(4-chlorophenyl)-3-(4-(1-((2-(2,6-dioxopiperidin-3-yl)-1,3-dioxoisoindolin-4-yl)oxy)-3,6,9,12,15-pentaoxaoctadecan-18-oyl)piperazin-1-yl)propyl)-1-(7H-pyrrolo[2,3-d]pyrimidin-4-yl)piperidine-4-carboxamide]?
**A.** inhibition of colony formation (BT474 cells): did not improve; AKT (T-AKT) degradation (total AKT (T-AKT)): did not improve

**Q.** With `Cc1ncsc1-c1ccc(CNC(=O)[C@@H]2C[C@@H](O)CN2C(=O)[C@@H](NC(=O)CCCCCCCCCCC(=O)N2CCN(CC[C@H](NC(=O)C3(N)CCN(c4ncnc5[nH]ccc45)CC3)c3ccc(Cl)cc3)CC2)C(C)(C)C)cc1` [Compound 20, 4-Amino-N-((S)-1-(4-chlorophenyl)-3-(4-(12-(((S)-1-((2S,4R)-4-hydroxy-2-((4-(4-methylthiazol-5-yl)benzyl)carbamoyl)pyrrolidin-1-yl)-3,3-dimethyl-1-oxobutan-2-yl)amino)-12-oxododecanoyl)-piperazin-1-yl)propyl)-1-(7H-pyrrolo[2,3-d]pyrimidin-4-yl)-piperidine-4-carboxamide] as the compound, how does the “T-AKT and P-AKT in tumor samples” value (T-AKT, P-AKT, P-PRAS40) read?
**A.** substantially degraded T-AKT and P-AKT

**Q.** And the “downstream signaling (PRAS40 phosphorylation) in tumor samples” value (T-AKT, P-AKT, P-PRAS40)?
**A.** effectively inhibited the downstream signaling

**Q.** What about the “downstream signaling inhibition after washout” value (P-PRAS40, P-S6; 48 h post-treatment) of the same compound?
**A.** partially recovered

**Q.** What about the tolerability (PC-3 xenografts [2]) of the same compound?
**A.** well tolerated

**Q.** What about the downstream signaling inhibition ([1]; BT474 cells, 1, 5 and 10 μM) of the same compound?
**A.** slightly enhanced downstream signaling inhibition compared to 19

**Q.** What about the “inhibition of colony formation” value (BT474 cells) of the same compound?
**A.** highly effective in inhibiting colony formation; also recorded: effectively inhibited colony formation

**Q.** And the “AKT degradation after pretreatment with MLN4924 or MG-132” value (T-AKT [3]; 2 h pretreatment)?
**A.** significantly diminished the AKT degradation effect

**Q.** And the “AKT degradation after pretreatment with excess AZD5363” value (T-AKT [3]; AZD5363 (1 μM) 2 h)?
**A.** rescued the AKT protein level

**Q.** And the “AKT degradation after pretreatment with excess VHL ligand VHL-2” value (T-AKT [3]; VHL-2 (1 μM) 2 h)?
**A.** restored the AKT protein level effectively

**Q.** And the “time to complete depletion of T-AKT” value (T-AKT [4]; 1 μM)?
**A.** ≤ 8 h

**Q.** And the “T-AKT level after washout” value (T-AKT [4]; 1 μM for 24 h, then washout)?
**A.** partially recovered

**Q.** What about the “duration of sustained AKT degradation post treatment” value (T-AKT [4]; washout experiments) of the same compound?
**A.** 1 to 2 days

**Q.** For “4-Amino-N-[(1S)-1-(4-chlorophenyl)-3-hydroxypropyl]-1-(7H-pyrrolo[2,3-d]pyrimidin-4-yl)piperidine-4-carboxamide [AZD5363, reference compound]”, which “downstream signaling inhibition after washout” value (P-PRAS40, P-S6; 24 h post-treatment) is on record?
**A.** near fully recovered

**Q.** What about the “PRAS40 and S6 phosphorylation” value (P-PRAS40, P-S6; 1 μM, 24 h) of the same compound?
**A.** effectively inhibited PRAS40 and S6 phosphorylation

**Q.** What about the “downstream signaling (PRAS40 and S6 phosphorylation)” value [1, 7] of the same compound?
**A.** effectively inhibited the phosphorylation of downstream PRAS40 and ribosomal protein S6

**Q.** What about the “phosphorylated AKT level” value [1, 7] of the same compound?
**A.** paradoxically upregulated the phosphorylated AKT level

**Q.** What about the AKT protein level (T-AKT [4]; 1 μM, 24 h) of the same compound?
**A.** did not significantly reduce the AKT protein level

**Q.** And the tumor growth inhibition (PC-3 xenografts [5])?
**A.** 75%

**Q.** And the T-AKT protein level (total AKT (T-AKT); BT474 cells, 1 μM)?
**A.** downregulated the T-AKT protein level

**Q.** What about the GI50 (PC3 cells) of the same compound?
**A.** 6.5 ± 2.9 µM

**Q.** And the GI50 (MDA-MB-468 cells)?
**A.** 3.8 ± 1.6 µM

**Q.** For `CN1C(=O)CCC(N2C(=O)c3cccc(NCCOCCOCCOCCOCCOCCC(=O)N4CCN(CC[C@H](NC(=O)C5(N)CCN(c6ncnc7[nH]ccc67)CC5)c5ccc(Cl)cc5)CC4)c3C2=O)C1=O` (stereo partly drawn) [Compound 43, 4-Amino-N-((1S)-1-(4-chlorophenyl)-3-(4-(1-((2-(1-methyl-2,6-dioxopiperidin-3-yl)-1,3-dioxoisoindolin-4-yl)amino)-3,6,9,12,15-pentaoxaoctadecan-18-oyl)piperazin-1-yl)propyl)-1-(7H-pyrrolo-[2,3-d]pyrimidin-4-yl)piperidine-4-carboxamide], which T-AKT protein level (T-AKT [4]; concentrations up to 10 μM, 24 h) is on record?
**A.** did not reduce the T-AKT protein level

**Q.** What about the GI50 (PC3 cells) of the same compound?
**A.** inactive

**Q.** And the GI50 (MDA-MB-468 cells)?
**A.** inactive

**Q.** With `Cc1ncsc1-c1ccc(CNC(=O)[C@@H]2C[C@@H](O)CN2C(=O)[C@@H](NC(=O)CCCCCCCCCCCC(=O)N2CCN(CC[C@H](NC(=O)C3(N)CCN(c4ncnc5[nH]ccc45)CC3)c3ccc(Cl)cc3)CC2)C(C)(C)C)cc1` [Compound 21, 4-Amino-N-((S)-1-(4-chlorophenyl)-3-(4-(13-(((S)-1-((2S,4R)-4-hydroxy-2-((4-(4-methylthiazol-5-yl)benzyl)carbamoyl)pyrrolidin-1-yl)-3,3-dimethyl-1-oxobutan-2-yl)amino)-13-oxotridecanoyl)-piperazin-1-yl)propyl)-1-(7H-pyrrolo[2,3-d]pyrimidin-4-yl)-piperidine-4-carboxamide] as the compound, how does the downstream signaling inhibition ([1]; BT474 cells, 1, 5 and 10 μM) read?
**A.** slightly enhanced downstream signaling inhibition compared to 19

**Q.** And the “inhibition of colony formation” value (BT474 cells)?
**A.** highly effective in inhibiting colony formation

**Q.** What does the source list for `NC1(C(=O)N[C@@H](CCN2CCN(C(=O)CCOCCOCCOCCOCCOCCNc3cccc4c3C(=O)N(C3CCC(=O)NC3=O)C4=O)CC2)c2ccc(Cl)cc2)CCN(c2ncnc3[nH]ccc23)CC1` (stereo partly drawn) [Compound 35, 4-Amino-N-((1S)-1-(4-chlorophenyl)-3-(4-(1-((2-(2,6-dioxopiperidin-3-yl)-1,3-dioxoisoindolin-4-yl)amino)-3,6,9,12,15-pentaoxaoctadecan-18-oyl)piperazin-1-yl)propyl)-1-(7H-pyrrolo[2,3-d]-pyrimidin-4-yl)piperidine-4-carboxamide]?
**A.** downstream signaling inhibition after washout (P-PRAS40, P-S6; 24 h post-treatment): near fully recovered; AUC [6]: 32500 ng·h/mL; Cmax [6]: 8 µM; Tmax [6]: 1 h; inhibition of phosphorylation of ribosomal protein S6 ([1]; BT474 cells, 1, 5 and 10 μM, among 32–38): most effective in inhibiting the phosphorylation of ribosomal protein S6; AKT protein level after washout (T-AKT [4]; 1 μM for 24 h, then washout, 24 h post-treatment): rebounded substantially; T-AKT level after washout (T-AKT [4]; 1 μM for 24 h, then washout): completely recovered

**Q.** For `Cc1ncsc1-c1ccc(CNC(=O)[C@@H]2C[C@@H](O)CN2C(=O)[C@@H](NC(=O)COCC(=O)N2CCN(CC[C@H](NC(=O)C3(N)CCN(c4ncnc5[nH]ccc45)CC3)c3ccc(Cl)cc3)CC2)C(C)(C)C)cc1` [Compound 3, 4-Amino-N-((S)-1-(4-chlorophenyl)-3-(4-(2-(2-(((S)-1-((2S,4R)-4-hydroxy-2-((4-(4-methylthiazol-5-yl)benzyl)carbamoyl)pyrrolidin-1-yl)-3,3-dimethyl-1-oxobutan-2-yl)amino)-2-oxoethoxy)acetyl)-piperazin-1-yl)propyl)-1-(7H-pyrrolo[2,3-d]pyrimidin-4-yl)-piperidine-4-carboxamide], which downstream signaling inhibition ([1]; BT474 cells, 1, 5 and 10 μM) is on record?
**A.** most effective inhibition of the downstream signaling

**Q.** What about the “AKT (T-AKT) degradation” value (total AKT (T-AKT)) of the same compound?
**A.** most significant T-AKT degradation

**Q.** Which downstream signaling inhibition ([1]; BT474 cells, 1, 5 and 10 μM) does the source give for `NC1(C(=O)N[C@@H](CCN2CCN(C(=O)CCCCCNc3cccc4c3C(=O)N(C3CCC(=O)NC3=O)C4=O)CC2)c2ccc(Cl)cc2)CCN(c2ncnc3[nH]ccc23)CC1` (stereo partly drawn) [Compound 28, 4-Amino-N-((1S)-1-(4-chlorophenyl)-3-(4-(6-((2-(2,6-dioxopiperidin-3-yl)-1,3-dioxoisoindolin-4-yl)amino)hexanoyl)piperazin-1-yl)-propyl)-1-(7H-pyrrolo[2,3-d]pyrimidin-4-yl)piperidine-4-carboxamide] here?
**A.** moderate effectiveness

**Q.** And the “AKT (T-AKT) degradation” value (total AKT (T-AKT))?
**A.** moderate effectiveness
